These results are taken from patent publication US6218406A, “Farnesyl transferase inhibitors, their preparation, the pharmaceutical compositions which contain them and their use in the preparation of medicaments” (Aventis Pharma S.A., priority 1996, dated 2001).

Some results are limits rather than exact numbers.

The first assay deals with farnesyl transferase (Homo sapiens, UniProt P49354+P49356). Briefly: Farnesyl transferase inhibition, [3H]-farnesylation of biotinylated K-ras C-terminal peptide (SPA assay). It counts as biochemical. The following applies: In vitro inhibitory activity (K-Ras) IC50, K-Ras substrate; 60 min at 37° C.; mean of two IC50 values.
Regarding `COc1ccccc1CC(=O)N1C[C@H]2[C@@]3(c4ccc(C)cc4)CC[C@H](c4ccccc43)[C@@]2(C(=O)O)C1` (single isomer, unassigned) [Example 30, dextrorotatory enantiomer of (3aRS,4SR,9SR,9aRS)-4,9-ethano-2-[2-(2-methoxyphenyl)acetyl]-9-(4-methylphenyl)-2,3,3a,4,9,9a-hexahydro-1H-benzo[f]isoindole-3a-carboxylic Acid], 74 nM corresponded to half-maximal inhibition (IC50).

The assay is the same for the next values; noted with them: K-Ras substrate; 60 min at 37° C.; mean of two IC50 values; read-out: In vitro inhibitory activity (K-Ras) IC50.
On to `C=C(C(=O)N1C[C@H]2[C@@]3(c4ccc(OC)cc4)CC[C@H](c4ccccc43)[C@@]2(C(=O)NCc2ccsc2)C1)c1ccccc1OC` (relative stereo) [Example 80, (3aRS,4SR,9SR,9aRS)-4,9-ethano-9-(4-methoxyphenyl)-2-[2-(2-methoxyphenyl)propenoyl]-2,3,3a,4,9,9a-hexahydro-1H-benzo[f]isoindole-3a-N-(3-thienylmethyl)carboxamide], for which the IC50 stood at 67 nM. Same read-out and setting: with `C=C(C(=O)N1C[C@H]2[C@@]3(c4cccc(F)c4)CC[C@H](c4ccccc43)[C@@]2(C(=O)NCc2cccnc2)C1)c1ccccc1OC` (relative stereo) [Example 87, (3aRS,4SR,9SR,9aRS)-4,9-ethano-9-(3-fluorophenyl)-2-[2-(2-methoxyphenyl)propenoyl]-2,3,3a,4,9,9a-hexahydro-1H-benzo[f]isoindole-3a-N-(3-pyridylmethyl)carboxamide] the figure was 64 nM.

On to `C=C(C(=O)N1C[C@H]2[C@@]3(c4cccc(Cl)c4)CC[C@H](c4ccccc43)[C@@]2(C(=O)NCc2cccnc2)C1)c1ccccc1OC` (relative stereo) [Example 90, (3aRS,4SR,9SR,9aRS)-9-(3-chlorophenyl)-4,9-ethano-2-[2-(2-methoxyphenyl)propenoyl]-2,3,3a,4,9,9a-hexahydro-1H-benzo[f]isoindole-3a-N-(3-pyridylmethyl)carboxamide], for which the concentration for half-maximal inhibition (IC50) worked out at 68 nM. On the same count and under the same terms, with `C=C(C(=O)N1C[C@H]2[C@@]3(c4cccc(N(C)C)c4)CC[C@H](c4ccccc43)[C@@]2(C(=O)OC)C1)c1ccccc1OC` (relative stereo) [Example 91, methyl (3aRS,4SR,9SR,9aRS)-9-(3-N,N-dimethylaminophenyl)-4,9-ethano-2-[2-(2-methoxyphenyl)propenoyl]-2,3,3a,4,9,9a-hexahydro-1H-benzo[f]isoindole-3a-carboxylate] the figure was 183 nM; with `C=C(C(=O)N1C[C@H]2[C@@]3(c4cccc(N(C)C)c4)CC[C@H](c4ccccc43)[C@@]2(C(=O)O)C1)c1ccccc1OC` (relative stereo) [Example 92, (3aRS,4SR,9SR,9aRS)-9-(3-N,N-dimethylaminophenyl)-4,9-ethano-2-[2-(2-methoxyphenyl)propenoyl]-2,3,3a,4,9,9a-hexahydro-1H-benzo[f]isoindole-3a-carboxylic Acid], 28 nM. The same measure, in the same setting: with `C=C(C(=O)N1C[C@H]2[C@@]3(c4ccc(N(C)C)cc4)CC[C@H](c4ccccc43)[C@@]2(C(=O)OC)C1)c1ccccc1OC` (relative stereo) [Example 94, methyl (3aRS,4SR,9SR,9aRS)-9-(4-N,N-dimethylaminophenyl)-4,9-ethano-2-[2-(2-methoxyphenyl)propenoyl]-2,3,3a,4,9,9a-hexahydro-1H-benzo[f]-isoindole-3a-carboxylate] the figure was 557 nM; with `C=C(C(=O)N1C[C@H]2[C@@]3(c4ccc(C)cc4)CC[C@H](c4ccccc43)[C@@]2(C(=O)O)C1)c1ccccc1OC` (single isomer, unassigned) [Example 4, laevorotatory enantiomer of (3aRS,4SR,9RS,9aRS)-4,9-ethano-2-[2-(2-methoxyphenyl)propenoyl]-9-(4-methylphenyl)-2,3,3a,4,9,9a-hexahydro-1H-benzo[f]isoindole-3a-carboxylic acid], 1800 nM. Consider `C=C(C(=O)N1C[C@H]2[C@@]3(c4ccc(C)cc4)CC[C@H](c4ccccc43)[C@@]2(C(=O)NCc2cccnc2)C1)c1ccccc1OC` (single isomer, unassigned) [Example 18, Dextrorotatory Enantiomer of (3aRS,4SR,9SR,9aRS)-4,9-ethano-2-[2-(2-methoxyphenyl)propenoyl]-9-(4-methylphenyl)-2,3,3a,4,9,9a-hexahydro-1H-benzo[f]isoindole-3a-N-(3-pyridylmethyl)carboxamide], for which the IC50 is 50 nM. On to `C=C(C(=O)N1C[C@H]2[C@@]3(c4ccc(C)cc4)CC[C@H](c4ccccc43)[C@@]2(C(=O)NCc2cccnc2)C1)c1ccccc1OC` (single isomer, unassigned) [Example 19, Levorotatory Enantiomer of (3aRS,4SR,9SR,9aRS)-4,9-ethano-2-[2-(2-methoxyphenyl)propenoyl]-9-(4-methylphenyl)-2,3,3a,4,9,9a-hexahydro-1H-benzo[f]isoindole-3a-N-(3-pyridylmethyl)carboxamide], for which the concentration for half-maximal inhibition (IC50) worked out at 181 nM. Still for that read-out and setting: the same measure for `C=C(C(=O)N1C[C@H]2[C@@]3(c4ccc5c(c4)OCCO5)CC[C@H](c4ccccc43)[C@@]2(C(=O)NCc2cccnc2)C1)c1ccccc1OC` (single isomer, unassigned) [Example 34, dextrorotatory enantiomer of (3aRS,4SR,9SR,9aRS)-9-(2,3-dihydro-1,4-benzodioxin-6-yl)-4,9-ethano-2-[2-(2-methoxyphenyl)propenoyl]-2,3,3a,4,9,9a-hexahydro-1H-benzo[f]isoindole-3a-N-(3-pyridylmethyl)carboxamide]: under 20 nM; for `C=C(C(=O)N1C[C@@H]2[C@]3(c4ccc5c(c4)OCCO5)CC[C@@H](c4ccccc43)[C@]2(C(=O)NCc2cccnc2)C1)c1ccccc1OC` (single isomer, unassigned) [Example 35, levorotatory enantiomer of (3aRS,4SR,9SR,9aRS)-9-(2,3-dihydro-1,4-benzodioxin-6-yl)-4,9-ethano-2-[2-(2-methoxyphenyl)propenoyl]-2,3,3a,4,9,9a-hexahydro-1H-benzo[f]isoindole-3a-N-(3-pyridylmethyl)carboxamide]: 84 nM; for `C=C(C(=O)N1C[C@@H]2[C@]3(c4ccc(C(F)(F)F)cc4)CC[C@@H](c4ccccc43)[C@]2(C(=O)O)C1)c1ccccc1OC` (single isomer, unassigned) [Example 41, dextrorotatory enantiomer of (3aRS,4SR,9SR,9aRS)-4,9-ethano-2-[2-(2-methoxyphenyl)propenoyl]-9-[4-(trifluoromethyl)phenyl]-2,3,3a,4,9,9a-hexahydro-1H-benzo[f]isoindole-3a-carboxylic Acid]: 9 nM. Take `C=C(C(=O)N1C[C@H]2[C@@]3(c4ccc(OC)cc4)CC[C@H](c4ccccc43)[C@@]2(C(=O)O)C1)c1ccccc1OC` (single isomer, unassigned) [Example 75, Dextrorotatory Enantiomer of (3aRS,4SR,9SR,9aRS)-4,9-ethano-9-(4-methoxyphenyl)-2-[2-(2-methoxyphenyl)propenoyl]-2,3,3a,4,9,9a-hexahydro-1H-benzo[f]isoindole-3a-carboxylic Acid]: the half-inhibitory concentration (IC50) was found to be 8 nM. Same read-out and setting: the same measure for `C=C(C(=O)N1C[C@H]2[C@@]3(c4ccc(C)cc4)CC[C@H](c4c(OC)cccc43)[C@@]2(C(=O)O)C1)c1ccccc1OC` (single isomer, unassigned) [Example 100, Dextrorotatory Enantiomer of (3aRS,4SR,9SR,9aRS)-4,9-ethano-5-methoxy-2-[2-(2-methoxyphenyl)propenoyl]-9-(4-methylphenyl)-2,3,3a,4,9,9a-hexahydro-1H-benzo[f]isoindole-3a-carboxylic Acid]: under 19 nM.
